# Laboratory results reported in US20240344241A1, “PROTEINACEOUS MOLECULES AND USES THEREFOR” (THE UNIVERSITY OF QUEENSLAND, priority 2021, published 2024).
# Bridge positions count the residues as written; N and C are the ends. Peptide text beside a SMILES is read from it.
# Experiments:
# Human β-FXIIa [1] = target: T1, Human β-FXIIa (Homo sapiens, UniProt P00748); assay: FXIIa competitive inhibition assay, fluorescent substrate Boc-QGR-MCA; type: biochemical
# T1 construct: Human β-FXIIa was obtained from Molecular Innovations, together with human FXa, human FXIa, human α-thrombin, and human plasma kallikrein; purchased Molecular Innovations; host or cells: purified from human plasma
# T1 sequence (P00748 373-615 limits assumed, other chains not shown): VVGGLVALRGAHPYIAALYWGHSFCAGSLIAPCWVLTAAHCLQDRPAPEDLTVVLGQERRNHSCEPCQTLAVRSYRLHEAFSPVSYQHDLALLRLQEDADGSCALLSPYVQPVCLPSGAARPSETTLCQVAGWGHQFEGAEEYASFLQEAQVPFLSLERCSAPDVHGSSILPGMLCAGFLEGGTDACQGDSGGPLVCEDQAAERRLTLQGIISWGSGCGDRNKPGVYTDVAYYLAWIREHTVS
# Text: Cyclic [I7F]MCoFx1 (also referred to as cyclic MCoFx6) was synthesized using solid phase peptide synthesis ([[…]] [SEQ ID NO: 97]). For this inhibitor, Tyr33 was mutated back to serine as per the original mRNA display screen (FIG. 1). Cyclic MCoFx6 was screened using a competitive inhibition assay, with the substrate being changed from a colorimetric substrate (Ac-QRFR-pNA in the data of Tables 7 and 10) to a fluorescent substrate (Boc-QGR-MCA) to allow the assay to be run with a lower concentration of enzyme. The assay was performed as described for Examples 2 and 3, except that the FXIIa concentration was 0.5 nM and the substrate concentration was 50 μM (KM=187 μM).
# The new variants were screened using competitive inhibition assays, with the substrate being changed from a colorimetric substrate (Ac-QRFR-pNA in the data of Tables 7 and 10) to a fluorescent substrate (Boc-QGR-MCA) to allow the assay to be run with a lower concentration of enzyme. Assays were performed as described for Examples 2 and 3, except that the FXIIa concentration was 0.5 nM and the substrate concentration was 50 μM (KM=187 μM). […] The effect of amino acid substitutions within loop 2 (Arg12, Arg13), loop 5 (Ala25, Arg27) or loop 6 (Asp34) on the activity of cyclic MCoFx7 against FXIIa was determined (refer to Table 14). […] Additionally, mutating Arg to Glu (reversing the side chain charge) only led to two-fold weaker activity. The adjacent residue Arg13 could also be mutated to Lys with no change in activity. Within loop 5, mutating Ala25 to Lys produced a slight gain in activity, whereas the Ala to Pro mutation led to a slight decrease in activity. Both mutations at Arg27 led to losses in activity in the order of two-fold (His) or 3.2-fold (Gly).
# (§1) The activity of acyclic and cyclic MCoFx1-5 and analogues thereof was assessed in competitive inhibition assays, as previously described in Swedberg et al. (2016) J Med Chem, 59: 7287-7292. Human β-FXIIa was obtained from Molecular Innovations, together with human FXa, human FXIa, human α-thrombin, and human plasma kallikrein. Human cationic trypsin and human plasmin were obtained from Sigma-Aldrich, and recombinant human matriptase was sourced from R&D Systems. Recombinant human urokinase (uPA) and recombinant human tissue plasminogen activator (tPA) were expressed in Expi293 cells, as previously described in Li et al. (2019) Chembiochem, 20: 46-50. FXIIa inhibition assays were performed in clear, low-binding 96-well plates using 250 μL (final volume) of assay buffer (0.1 M Tris-HCl pH 8.0, 0.1 M NaCl, 10 mM CaCl2 and 0.005% Triton X-100). Inhibitors were serially diluted and incubated with 10 nM FXIIa at room temperature to reach equilibrium. After adding 100 μM Ac-QRFR-pNA substrate (KM=162 μM), enzymatic activity was measured by monitoring release of the pNA moiety using a TECAN infinite M1000 Pro plate reader (A=405 nm, reading interval, 10 s; assay time course, 7 min). Assays were conducted in three times in duplicate. Substrate kinetic constants (Michaelis-Menten) and inhibition constants (Morrison K) were determined by non-linear regression using Prism 7 (GraphPad). Selectivity assays with off-target proteases were performed in a similar way, except that different concentrations of enzyme and substrate were used, as indicated in Table 16. For assays using a fluorescent substrate (peptide-4-methylcoumaryl-7-amide, MCA), black low-binding 96-well plates were used and activity was measured using a TECAN infinite M1000 pro plate reader (λex 360 nm, λem 460 nm, reading interval, 30 s; assay time course, 5-30 min).
# [2] = target: T2, biotinylated human β-FXIIa (Homo sapiens, UniProt P00748); assay: Surface plasmon resonance binding to FXIIa
# T2 construct: purchased Molecular Innovations
# T2 sequence (P00748 373-615 limits assumed, other chains not shown): as above
# Experimental: Binding kinetics of each peptide towards biotinylated human β-FXIIa (Molecular Innovations) and non-labelled zymogen FXII (Haematologic Technologies) were determined using a Biacore T200 machine (Cytiva). For β-FXIIa binding measurements, the running buffer was HBS-EP+(10 mM HEPES, 150 mM NaCl, 3 mM EDTA and 0.05% (v/v) surfactant P20, pH 7.4). Biotinylated β-FXIIa was immobilized on a Sensor Chip CAP (Cytiva) using Biotin CAPture Reagent (Cytiva). A series of concentrations of each peptide were injected as analyte and the binding kinetics were modelled using a 1:1 binding model. Regeneration of sensor surface was performed after each measurement cycle. For FXII binding measurements, the running buffer was PBST (137 mM NaCl, 2.7 mM KCl, 10 mM Na2HPO4, 1.8 mM KH2PO4, 0.05% Tween-20). Non-labelled FXII was immobilized on a Sensor Chip CM5 (Cytiva) using Amine Coupling Kit (Cytiva), achieving a final immobilization level of 2500 RU. Each peptide was flowed through immobilized FXII at 5 μM for 60 s and allowed dissociation for 150 s.
# bovine trypsin = target: T3, bovine trypsin (Bos taurus, UniProt P00760); assay: Surface plasmon resonance binding to trypsin
# T3 sequence (P00760 24-246): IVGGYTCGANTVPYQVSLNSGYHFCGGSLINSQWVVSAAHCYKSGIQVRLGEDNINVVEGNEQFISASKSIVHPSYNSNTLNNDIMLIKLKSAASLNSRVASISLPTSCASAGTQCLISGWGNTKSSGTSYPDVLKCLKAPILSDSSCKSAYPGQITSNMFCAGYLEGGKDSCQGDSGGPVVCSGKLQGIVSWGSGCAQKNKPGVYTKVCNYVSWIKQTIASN
# Human β-FXIIa [3] = target: T1, Human β-FXIIa; assay: FXIIa competitive inhibition assay, colorimetric substrate Ac-QRFR-pNA; type: biochemical
# Experimental: as §1
SMILES,Ki (Human β-FXIIa [1]),also measured
"CC[C@H](C)[C@@H]1NC(=O)CNC(=O)CNC(=O)[C@H](CC(=O)O)NC(=O)[C@H](CO)NC(=O)CNC(=O)[C@H](CO)NC(=O)CNC(=O)[C@@H]2CSSC[C@@H]3NC(=O)[C@H](CC(=O)O)NC(=O)[C@H](CO)NC(=O)[C@H](CC(=O)O)NC(=O)[C@H](CCCNC(=N)N)NC(=O)[C@H]([C@@H](C)O)NC(=O)[C@@H]4CSSC[C@H](NC(=O)[C@H]([C@@H](C)CC)NC(=O)[C@H](CSSC[C@H](NC1=O)C(=O)N1CCC[C@H]1C(=O)N[C@@H](CCCNC(=N)N)C(=O)N[C@@H]([C@@H](C)CC)C(=O)NCC(=O)N[C@@H](CCCNC(=N)N)C(=O)N[C@@H](CC(C)C)C(=O)N4)NC(=O)[C@H](C)NC(=O)CNC(=O)[C@@H]1CCCN1C3=O)C(=O)N[C@@H](CCCNC(=N)N)C(=O)N[C@@H](C)C(=O)N[C@@H]([C@@H](C)O)C(=O)N[C@@H](CCCNC(=N)N)C(=O)N[C@@H](Cc1ccccc1)C(=O)N2 [Cyclic [R12T]MCoFx7] (cyclo(ACICRATRFCGSGSDGGICPRIGRLCTRDSDCPG); disulfide 2-19, 4-26, 10-32)",0.065 ± 0.005 nM,–
"CC[C@H](C)[C@@H]1NC(=O)CNC(=O)CNC(=O)[C@H](CC(=O)O)NC(=O)[C@H](CO)NC(=O)CNC(=O)[C@H](CO)NC(=O)CNC(=O)[C@@H]2CSSC[C@@H]3NC(=O)[C@H](CC(=O)O)NC(=O)[C@H](CO)NC(=O)[C@H](CC(=O)O)NC(=O)[C@H](CCCNC(=N)N)NC(=O)[C@H](C(C)C)NC(=O)[C@@H]4CSSC[C@H](NC(=O)[C@H]([C@@H](C)CC)NC(=O)[C@H](CSSC[C@H](NC1=O)C(=O)N1CCC[C@H]1C(=O)N[C@@H](CCCNC(=N)N)C(=O)N[C@@H]([C@@H](C)CC)C(=O)NCC(=O)N[C@@H](CCCNC(=N)N)C(=O)N[C@@H](CC(C)C)C(=O)N4)NC(=O)[C@H](C)NC(=O)CNC(=O)[C@@H]1CCCN1C3=O)C(=O)N[C@@H](CCCNC(=N)N)C(=O)N[C@@H](C)C(=O)N[C@@H]([C@@H](C)O)C(=O)N[C@@H](CCCNC(=N)N)C(=O)N[C@@H](Cc1ccccc1)C(=O)N2 [Cyclic [R12V]MCoFx7] (cyclo(ACICRATRFCGSGSDGGICPRIGRLCVRDSDCPG); disulfide 2-19, 4-26, 10-32)",0.069 ± 0.005 nM,–
"CC[C@H](C)[C@@H]1NC(=O)CNC(=O)CNC(=O)[C@H](CC(=O)O)NC(=O)[C@H](CO)NC(=O)CNC(=O)[C@H](CO)NC(=O)CNC(=O)[C@@H]2CSSC[C@@H]3NC(=O)[C@H](CC(=O)O)NC(=O)[C@H](CO)NC(=O)[C@H](CC(=O)O)NC(=O)[C@H](CCCCN)NC(=O)[C@H](CCCNC(=N)N)NC(=O)[C@@H]4CSSC[C@H](NC(=O)[C@H]([C@@H](C)CC)NC(=O)[C@H](CSSC[C@H](NC1=O)C(=O)N1CCC[C@H]1C(=O)N[C@@H](CCCNC(=N)N)C(=O)N[C@@H]([C@@H](C)CC)C(=O)NCC(=O)N[C@@H](CCCNC(=N)N)C(=O)N[C@@H](CC(C)C)C(=O)N4)NC(=O)[C@H](C)NC(=O)CNC(=O)[C@@H]1CCCN1C3=O)C(=O)N[C@@H](CCCNC(=N)N)C(=O)N[C@@H](C)C(=O)N[C@@H]([C@@H](C)O)C(=O)N[C@@H](CCCNC(=N)N)C(=O)N[C@@H](Cc1ccccc1)C(=O)N2 [Cyclic [R13K]MCoFx7] (cyclo(ACICRATRFCGSGSDGGICPRIGRLCRKDSDCPG); disulfide 2-19, 4-26, 10-32)",0.068 ± 0.003 nM,–
"CC[C@H](C)[C@@H]1NC(=O)CNC(=O)CNC(=O)[C@H](CC(=O)O)NC(=O)[C@H](CO)NC(=O)CNC(=O)[C@H](CO)NC(=O)CNC(=O)[C@@H]2CSSC[C@@H]3NC(=O)[C@H](CC(=O)O)NC(=O)[C@H](CO)NC(=O)[C@H](CC(=O)O)NC(=O)[C@H](CCCNC(=N)N)NC(=O)[C@H](CCCNC(=N)N)NC(=O)[C@@H]4CSSC[C@H](NC(=O)[C@H]([C@@H](C)CC)NC(=O)[C@H](CSSC[C@H](NC1=O)C(=O)N1CCC[C@H]1C(=O)N[C@@H](CCCNC(=N)N)C(=O)N[C@@H]([C@@H](C)CC)C(=O)NCC(=O)N[C@@H](CCCNC(=N)N)C(=O)N[C@@H](CC(C)C)C(=O)N4)NC(=O)[C@H](C)NC(=O)CNC(=O)[C@@H]1CCCN1C3=O)C(=O)N[C@@H](CCCNC(=N)N)C(=O)N[C@@H](C)C(=O)N[C@@H]([C@@H](C)O)C(=O)NCC(=O)N[C@@H](Cc1ccccc1)C(=O)N2 [Cyclic [R27G]MCoFx7] (cyclo(ACICRATGFCGSGSDGGICPRIGRLCRRDSDCPG); disulfide 2-19, 4-26, 10-32)",0.21 ± 0.008 nM,–
"CC[C@H](C)[C@@H]1NC(=O)CNC(=O)CNC(=O)[C@H](CC(=O)O)NC(=O)[C@H](CO)NC(=O)CNC(=O)[C@H](CO)NC(=O)CNC(=O)[C@@H]2CSSC[C@@H]3NC(=O)[C@H](CC(=O)O)NC(=O)[C@H](CO)NC(=O)[C@H](CC(=O)O)NC(=O)[C@H](CCCNC(=N)N)NC(=O)[C@H](CCCNC(=N)N)NC(=O)[C@@H]4CSSC[C@H](NC(=O)[C@H]([C@@H](C)CC)NC(=O)[C@H](CSSC[C@H](NC1=O)C(=O)N1CCC[C@H]1C(=O)N[C@@H](CCCNC(=N)N)C(=O)N[C@@H]([C@@H](C)CC)C(=O)NCC(=O)N[C@@H](CCCNC(=N)N)C(=O)N[C@@H](CC(C)C)C(=O)N4)NC(=O)[C@H](C)NC(=O)CNC(=O)[C@@H]1CCCN1C3=O)C(=O)N[C@@H](CCCNC(=N)N)C(=O)N[C@@H](C)C(=O)N[C@@H]([C@@H](C)O)C(=O)N[C@@H](Cc1c[nH]cn1)C(=O)N[C@@H](Cc1ccccc1)C(=O)N2 [Cyclic [R27H]MCoFx7] (cyclo(ACICRATHFCGSGSDGGICPRIGRLCRRDSDCPG); disulfide 2-19, 4-26, 10-32)",0.12 ± 0.008 nM,–
"CC[C@H](C)[C@H](NC(=O)CNC(=O)CNC(=O)[C@@H](N)CC(=O)O)C(=O)N[C@H]1CSSC[C@@H]2NC(=O)[C@H](C)NC(=O)CNC(=O)[C@@H]3CCCN3C(=O)[C@@H]3CSSC[C@@H](C(=O)NCC(=O)N[C@@H](CO)C(=O)NCC(=O)N[C@@H](CO)C(=O)O)NC(=O)[C@H](Cc4ccc(O)cc4)NC(=O)[C@H]([C@@H](C)O)NC(=O)[C@H](CCCNC(=N)N)NC(=O)[C@H](CCCNC(=N)N)NC(=O)[C@H]([C@@H](C)CC)NC(=O)[C@H](CSSC[C@H](NC(=O)[C@H](Cc4ccc(O)cc4)NC(=O)[C@H](C(C)C)NC(=O)[C@H](CC(C)C)NC(=O)[C@H]([C@@H](C)CC)NC(=O)[C@H](CCCNC(=N)N)NC(=O)[C@@H]4CCCN4C1=O)C(=O)N[C@@H](CCCNC(=N)N)C(=O)N[C@@H](CCCNC(=N)N)C(=O)N[C@@H](CC(=O)O)C(=O)N[C@@H](CO)C(=O)N[C@@H](CC(=O)O)C(=O)N3)NC(=O)[C@H]([C@@H](C)CC)NC2=O [MCoFx2 acyclic] (H-DGGICPRILVYCRRDSDCPGACICIRRTYCGSGS-OH; disulfide 5-22, 12-24, 18-30)",–,Kd [2]: 45.4 ± 2.9 nM; Kd (bovine trypsin): < 0.1 nM; Ki (Human β-FXIIa [3]): 73 ± 3 nM
